Patent US20230210816A1 (priority 2020, published 2023)
Like-named read-outs stand apart in the source and are kept apart here.

How the values were obtained:
[1] = tested on: MLV pseudovirus bearing JUNV glycoprotein; test: microbe, parasite or virus in culture; format: cell-based; details: Vero, 24 h
[2] = tested on: MLV pseudovirus bearing LCMV glycoprotein; test: microbe, parasite or virus in culture; format: cell-based; details: Vero, 24 h
[3] = tested on: MLV pseudovirus bearing PICV WT glycoprotein; test: microbe, parasite or virus in culture; format: cell-based; details: Vero, 24 h
[4] = tested on: MLV pseudovirus bearing MARV Angola glycoprotein; test: microbe, parasite or virus in culture; format: cell-based
[5] = tested on: MLV pseudovirus bearing MARV Musoke glycoprotein; test: microbe, parasite or virus in culture; format: cell-based
PICV-GFP = test: microbe, parasite or virus in culture; format: cell-based; details: Pichinde virus, Vero C1008, 48 h
LASV Josiah = test: microbe, parasite or virus in culture; format: cell-based, Lassa virus; details: Mammarenavirus lassaense, Vero C1008
arenaviruses = test: organism not typed; format: cell-based; details: read-out: in vitro IC50
EBOV and MARV = test: microbe, parasite or virus in culture; format: cell-based; details: Zaire ebolavirus, read-out: in vitro IC50
[6] = tested on: LASV and JUNV pseudoviruses; test: organism not typed; format: cell-based
[7] = human, in vivo, cited from earlier work

SMILES	IC50 [1] [µM]	IC50 [2] [µM]	IC50 [3] [µM]	IC50 [4] [µM]	IC50 [5] [µM]	IC50 (PICV-GFP) [µM]	IC50 (LASV Josiah) [µM]	IC50 (arenaviruses) [µM]	IC50 (EBOV and MARV) [µM]	fold reduction of IC50 of arbidol by combination [6]	IC50 ([6]; read-out: IC50 of arbidol in combination) [µM]	Cmax ([7]; po) [nM]	Cmax [7] [nM]
CCOC(=O)c1c(CSc2ccccc2)n(C)c2cc(Br)c(O)c(CN(C)C)c12 [arbidol]	6.4	7.4	7.4	3.9	3.5	8.4	10	6 to 10	2.7 to 3.9	about 2 fold	3 to 4	900 to 1500	4000
CCN(CC)Cc1cc(Nc2ccnc3cc(Cl)ccc23)ccc1O [amodiaquine]						4.5							
O=C(Nc1ccc([N+](=O)[O-])cc1Cl)c1cc(Cl)ccc1O [niclosamide]						< 0.2	0.2						
